# Earlier results as cited in patent publication US20210127703A1, “FOOD PRODUCT USING AN IMPROVED SUGAR” (priority 2019, published 2021).
# Assays:
# [1] = transdermal; higher than for Δ8-THC
# [2] = in vivo
# [3] = test system: liver microsomal drug-metabolizing enzymes; details: in vitro; inhibiting hexobarbital metabolism in humans
# [4] = after application of a dermal patch
# [5] = ingestion of 20 mg of THC in a chocolate cookie
structure (smiles),measurement,setting,value
"C=C(C)[C@@H]1CCC(C)=C[C@H]1c1c(O)cc(CCCCC)cc1O [CBD, cannabidiol]",permeability relative to Δ8-THC,[1],10 fold
same,excretion in the feces,[2],a large proportion of the dose is excreted unchanged in the feces
same,inhibition of liver microsomal drug-metabolizing enzymes,[3],in vitro inhibitor of liver microsomal drug-metabolizing enzymes
same,effect of CBD on pharmacokinetics of THC,"CYP 2C; Hunt et al., except for a slight slowing of metabolism of 11-OH-THC to THC-COOH",not affected
same,inhibition of hydroxylation of THC to 11-OH-THC catalyzed by CYP 2C,CYP 2C; oral THC alone compared to a THC and CBD preparation,only partially inhibited
CCCCCc1cc(O)c2c(c1)OC(C)(C)[C@@H]1CC=C(C)C[C@@H]21 [Δ8-THC],duration steady-state plasma concentration maintained,[4],at least 48 h
same,mean steady-state plasma concentration,[4],4.4 ng/mL
same,time to steady-state plasma concentration,[4],≤ 1.4 h
CCCCCc1cc(O)c2c(c1)OC(C)(C)c1ccc(C)cc1-2 [CBN],permeability relative to Δ8-THC,[1],10 fold
CCCCCc1cc(O)c2c(c1)OC(C)(C)[C@@H]1CCC(C)=C[C@@H]21 [THC],time of peak THC concentration following ingestion,[5],1 to 5 h
